# US20150250782A1, “Methods and Compositions for Hypotensive Resuscitation” (Pharmazz, Inc., priority 2012, published 2015)
# Columns and labels:
# [1] = system: endothelin A (ETA) receptors; assay: Expression of ETA receptors in blood vessels after intravenous administration; assay type: in vivo, rat; settings: intravenous administration in rats
# [2] = system: right auricle of guinea pig; settings: Srimal, Mason et al. 1990, cited from earlier work
# [3] = system: urethane anesthetized rats and conscious freely moving cats and rats; settings: 0.05 to 0.2 mg/kg, iv; Srimal, Gulati et al. 1990; cited from earlier work
# [4] = system: isolated perfused rabbit heart; settings: Bhatnagar, Pande et al. 1985; cited from earlier work
# α2 adrenergic receptors = assay: Centhaquin resuscitation with and without α2 adrenergic antagonists: arterial blood hematocrit, pH, gases, electrolytes, lactate; assay type: in vivo, rat; parameters: pCO2 / pO2 / Na+ / K+ / Ca++ / Lactate: unit not given beside the values
# hemorrhaged rats [5] = assay: Norepinephrine required to maintain MAP at 70 mmHg in hemorrhaged rats; assay type: in vivo, rat; settings: 0.05 mg/kg
# Experimental: (§1) In another study, the effect of centhaquin resuscitation on the amount of norepinephrine (NE) required to maintain mean arterial pressure (MAP) and the time by which MAP falls back to 35 mmHg in hemorrhaged rats was determined. Male, adult rats were anesthetized with urethane and a pressure catheter SPR-320 was placed in the femoral artery, and a pressure-volume catheter SPR-869 was placed in the left ventricle. Hemorrhage was induced by withdrawing blood and MAP was maintained at 35 mmHg for 30 minutes followed by resuscitation.
# (§2) Two sets of experiments were performed. First, the amount of NE required to maintain MAP at 70 mmHg in normal saline (NS) or centhaquin (0.05 mg/kg) treated rats (volume equal to blood loss) was determined. Second, the time by which MAP fell back to 35 mmHg in rats treated with 3% hypertonic saline (HS) or centhaquin (0.05 mg/kg) (volume one-fifth of blood loss) was determined. […] In a second set of experiments, hemorrhaged rats were resuscitated with either HS or centhaquin (one-fifth the volume of blood loss).
# [6] = system: release of norepinephrine; settings: 0.1, 1.0 and 10.0 μg/ml; Bhatnagar, Pande et al. 1985; cited from earlier work
# hemorrhaged rats [7] = assay: Fixed-pressure hemorrhage model, centhaquin dissolved in LR (100% SBV); assay type: in vivo, rat
# Experimental: In the studies disclosed below, a rodent model of fixed-pressure hemorrhage without tissue trauma was used. This model limits factors that can influence the activity of a drug that is being investigated for the first time as a resuscitation agent. This hemorrhage model was made more severe by maintaining the hypotension for 30 minutes from the onset of hemorrhage to reach a base deficit of greater than −12 mEq/L (Gulati, Sen et al. 1997). In this irreversible situation, compensatory mechanisms fail (decompensatory phase), and a tremendous decrease in blood flow to all organs occurs, causing hypoperfusion leading to tissue hypoxia and end-organ failure (Gulati, Sen et al. 1997).
# A rodent model of fixed-pressure hemorrhage without tissue trauma was used in a preliminary study. This hemorrhage model was made more severe by maintaining the hypotension for 30 min from the onset of hemorrhage to reach a base deficit of greater than −12 mEq/L (Gulati, Sen et al. 1997). […] Following groups were studied: Lactated Ringer's solution (LR-100) (100% shed blood volume (SBV)), or centhaquin (free base) (0.017, 0.05 and 0.15 mg/kg) dissolved in LR (100% SBV), or LR-300 (300% SBV).
# hemorrhaged rats [8] = assay: Time by which MAP falls back to 35 mmHg in hemorrhaged rats, low volume resuscitation; assay type: in vivo, rat
# Experimental: as §1, §2
# hemorrhaged rats [9] = assay: Initial experiments in hemorrhaged rats with 0.45 mg/kg centhaquin; assay type: in vivo, rat
# Experimental: Initial experiments in hemorrhaged rats were performed with a 0.45 mg/kg dose of centhaquin. […] Centhaquin (0.45 mg/kg) produced a decrease in HR (beats/min) from 368±12 at hemorrhage, to 306±6, 309±6 and 274±11 at 30, 60 and 120 min, respectively, following resuscitation; cardiac output (mL) increased from 32±6 at hemorrhage, to 77±3, 74±4 and 62±5 at 30, 60 and 120 min, respectively, following resuscitation; while systemic vascular resistance (dynes*sec/cm5) was 84±4 at hemorrhage, and fell to 39±9, 42±9 and 45±6 at 30, 60 and 120 min, respectively, following resuscitation.
# [10] = 0.05 mg/kg, 60 min following resuscitation
# [11] = 0.05 mg/kg, one-fifth the volume of blood loss
# [12] = 120 min following resuscitation
smiles,measurement,setting,value
"Cc1cccc(N2CCN(CCc3ccc4ccccc4n3)CC2)c1 [centhaquin, 2-[2-(4-(3-methyphenyl)-1-piperazinyl)ethyl]-quinoline]",expression of endothelin A (ETA) receptors in the blood vessels,[1],increase the expression
same,effect on positive inotropic effect of norepinephrine,[2],significantly potentiated
same,spontaneous contraction of the right auricle,[2]; up to a concentration of 2 μg/ml,not affected
same,mean arterial pressure (MAP) and heart rate (HR),[3],dose-dependent decrease
same,"inotropic effect, ventricular contractions",[4],positive inotropic effect
same,Ca++,α2 adrenergic receptors; Baseline,1.15 ± 0.02
same,Hematocrit,α2 adrenergic receptors; Baseline,54.67 ± 2.03
same,K+,α2 adrenergic receptors; Baseline,2.73 ± 1.07
same,Lactate,α2 adrenergic receptors; Baseline,3.17 ± 0.24
same,Na+,α2 adrenergic receptors; Baseline,134.33 ± 0.88
same,pCO2,α2 adrenergic receptors; Baseline,46.33 ± 1.67
same,pH,α2 adrenergic receptors; Baseline,7.34 ± 0.01
same,pO2,α2 adrenergic receptors; Baseline,118.33 ± 6.77
same,Ca++,α2 adrenergic receptors; Hemorrhage,1.22 ± 0.00
same,Hematocrit,α2 adrenergic receptors; Hemorrhage,37.67 ± 2.33
same,K+,α2 adrenergic receptors; Hemorrhage,5.73 ± 0.30
same,Lactate,α2 adrenergic receptors; Hemorrhage,10.10 ± 0.70
same,Na+,α2 adrenergic receptors; Hemorrhage,124.33 ± 1.86
same,pCO2,α2 adrenergic receptors; Hemorrhage,27.33 ± 1.20
same,pH,α2 adrenergic receptors; Hemorrhage,7.24 ± 0.02
same,pO2,α2 adrenergic receptors; Hemorrhage,124.00 ± 4.73
same,Ca++,α2 adrenergic receptors; Resuscitation 30 min,1.17 ± 0.02
same,Hematocrit,α2 adrenergic receptors; Resuscitation 30 min,33.00 ± 1.53
same,K+,α2 adrenergic receptors; Resuscitation 30 min,4.73 ± 0.09
same,Lactate,α2 adrenergic receptors; Resuscitation 30 min,5.80 ± 0.32
same,Na+,α2 adrenergic receptors; Resuscitation 30 min,130.00 ± 0.08
same,pCO2,α2 adrenergic receptors; Resuscitation 30 min,33.00 ± 0.58
same,pH,α2 adrenergic receptors; Resuscitation 30 min,7.29 ± 0.01
same,pO2,α2 adrenergic receptors; Resuscitation 30 min,124.00 ± 4.51
same,Ca++,α2 adrenergic receptors; Resuscitation 60 min,1.18 ± 0.03
same,Hematocrit,α2 adrenergic receptors; Resuscitation 60 min,32.67 ± 1.76
same,K+,α2 adrenergic receptors; Resuscitation 60 min,4.60 ± 0.00
same,Lactate,α2 adrenergic receptors; Resuscitation 60 min,4.53 ± 0.38
same,Na+,α2 adrenergic receptors; Resuscitation 60 min,128.00 ± 1.00
same,pCO2,α2 adrenergic receptors; Resuscitation 60 min,33.33 ± 0.33
same,pH,α2 adrenergic receptors; Resuscitation 60 min,7.31 ± 0.01
same,pO2,α2 adrenergic receptors; Resuscitation 60 min,121.67 ± 4.63
same,Ca++,α2 adrenergic receptors; Resuscitation 120 min,1.18 ± 0.01
same,Hematocrit,α2 adrenergic receptors; Resuscitation 120 min,33.67 ± 2.03
same,K+,α2 adrenergic receptors; Resuscitation 120 min,5.17 ± 0.15
same,Lactate,α2 adrenergic receptors; Resuscitation 120 min,5.67 ± 0.22
same,Na+,α2 adrenergic receptors; Resuscitation 120 min,130.33 ± 0.33
same,pCO2,α2 adrenergic receptors; Resuscitation 120 min,29.00 ± 1.15
same,pH,α2 adrenergic receptors; Resuscitation 120 min,7.28 ± 0.01
same,pO2,α2 adrenergic receptors; Resuscitation 120 min,132.00 ± 6.69
same,Blood lactate,"hemorrhaged rats [5]; 60 min following resuscitation, volume equal to blood loss",1.65 ± 0.23 mmol/L
same,amount of NE needed in each rat to maintain MAP at 70 mmHg,hemorrhaged rats [5]; first 60 min of resuscitation,17.5 µg
same,norepinephrine release evoked by potassium chloride and dimethyl phenyl piperazinium chloride,[6],inhibited
same,spontaneous release of norepinephrine,[6],"initial increase, followed by a decrease"
same,decrease in systemic vascular resistance,hemorrhaged rats [7]; 0.017 mg/kg,57%
same,increase in MAP,hemorrhaged rats [7]; 0.017 mg/kg,55%
same,increase in cardiac output,hemorrhaged rats [7]; 0.017 mg/kg,260%
same,survival time,hemorrhaged rats [7]; 0.017 mg/kg in LR (100% SBV),291 ± 57 min
same,blood lactate levels,"hemorrhaged rats [7]; 0.017 mg/kg, 60 min following resuscitation",3.55 ± 0.07 mmol/L
same,decrease in systemic vascular resistance,hemorrhaged rats [7]; 0.05 mg/kg,41%
same,increase in cardiac output,hemorrhaged rats [7]; 0.05 mg/kg,180%
same,survival time,hemorrhaged rats [7]; 0.05 mg/kg in LR (100% SBV),387 ± 39 min
same,resuscitation compared to LR-300,hemorrhaged rats [7]; 0.05 mg/kg in LR-100 vs LR-300 (300% SBV),more effective in resuscitation
same,blood lactate levels,hemorrhaged rats [7]; [10],4.08 ± 0.28 mmol/L
same,increase in MAP,hemorrhaged rats [7]; [10],59%
same,blood lactate lower compared to hypertonic saline,hemorrhaged rats [8]; [11],44%
same,time by which MAP fell back to 35 mmHg,hemorrhaged rats [8]; [11],148 ± 15 min
same,survival after blood transfusion,hemorrhaged rats [8]; blood transfusion one-fifth the volume of blood loss after MAP fell to 35 mmHg,788 min
same,HR,hemorrhaged rats [9]; 30 min following resuscitation,306±6 beats/min
same,MAP,hemorrhaged rats [9]; 30 min following resuscitation,38±4 mmHg
same,cardiac output,hemorrhaged rats [9]; 30 min following resuscitation,77 ± 3 mL
same,systemic vascular resistance,hemorrhaged rats [9]; 30 min following resuscitation,39±9 dynes*sec/cm5
same,HR,hemorrhaged rats [9]; 60 min following resuscitation,309±6 beats/min
same,MAP,hemorrhaged rats [9]; 60 min following resuscitation,39±4 mmHg
same,cardiac output,hemorrhaged rats [9]; 60 min following resuscitation,74 ± 4 mL
same,systemic vascular resistance,hemorrhaged rats [9]; 60 min following resuscitation,42±9 dynes*sec/cm5
same,HR,hemorrhaged rats [9]; [12],274±11 beats/min
same,MAP,hemorrhaged rats [9]; [12],35±4 mmHg
same,cardiac output,hemorrhaged rats [9]; [12],62 ± 5 mL
same,systemic vascular resistance,hemorrhaged rats [9]; [12],45±6 dynes*sec/cm5
same,HR,hemorrhaged rats [9]; at hemorrhage,368±12 beats/min
same,cardiac output,hemorrhaged rats [9]; at hemorrhage,32 ± 6 mL
same,systemic vascular resistance,hemorrhaged rats [9]; at hemorrhage,84±4 dynes*sec/cm5
